“Also recorded” adds a separate entry of the source.
Assays:
Format in all cases: in vivo, rat
cleaved caspase 3 = experiment: Western immunoblotting, cleaved caspase 3; settings: aged rats; oral 8-AG 5 mg/kg/day, 6 weeks
Procedure: (§1) Western immunoblotting: One half of each bladder preparation was homogenized using Lysing Matrix D in a FastPrep 24 instrument (MP Biomedicals, Solon, Ohio) in HBSS (5 mM KCl, 0.3 mM KH2PO4, 138 mM NaCl, 4 mM NaHO3, 0.3 mM Na2HCO3, 0.3 mM Na2HPO4, 5.6 mM glucose and 10 mM Hepes, pH 7.4) containing complete protease inhibitor cocktail (1 tablet/10 ml, ROCHE®, Indianapolis, Ind.)) and phosphatase inhibitor cocktail (SIGMA®, 1:100). After centrifugation (13000 rpm; 15 min at 4° C.), the membrane protein fraction was prepared by suspending the membrane pellets in lysis buffer containing 0.3 M NaCl, 50 mM Tris-HCl (pH 7.6) and 0.5% Triton X-100 and the same concentration of protease inhibitors as above. The suspensions were incubated on ice and centrifuged (13000 rpm; 15 min at 4° C.). The protein concentrations of the combined supernatants were determined using the PIERCE® BCA protein assay (THERMO SCIENTIFIC®, Rockford, Ill.). After denaturation (100° C. for 5 min) in the presence of Laemmli sample buffer, lysate from each sample was separated on a 4-15% TGX Stain-Free SDS-PAGE gel (BIO-RAD® Laboratories, Hercules, Calif.). As a loading control, total protein per sample was determined using Bio-Rad® Stain Free SDS-PAGE gel technology. UV-activated protein fluorescence was imaged on a CHEMIDOC® MP (BIO-RAD®). […] The volume (intensity) of each protein species was determined and normalized to total protein using Image Lab software (BIO-RAD®).

[1] = test system: bladder wall collagen fibers; experiment: Planar biaxial mechanical testing coupled with multiphoton microscopy of bladder wall; settings: aged rats
Procedure: Protocol 3: Planar biaxial mechanical testing coupled with multiphoton microscopy was performed on bladder wall specimens to assess bladder mechanical function while simultaneously observing changes in the collagen microstructure. Briefly, the unloaded intact bladder diameter (do) and meridional length (hv) were measured and used to calculate the unloaded bladder volume (V0) from the ellipsoid volume, V0=πd0^2h0/6. The intact bladders were then cut open longitudinally and trimmed into 6±1 mm×6±1 mm square specimens for mechanical testing with sides aligned in the in situ longitudinal and circumferential directions. Samples were then positioned in the custom-designed biaxial testing system and mechanically tested using fiducial markers on the sample to calculate stretch, defined as the ratio of distance between markers in sample when loaded and unloaded. A multiphoton microscope (OLYMPUS® FV1000 MPE) equipped with a Coherent Cheleon TiSapphire pulsed Laser was used to image the undulated (wavy) collagen fibers in the mounted samples without staining or fixation during loading (i.e., stretch) as per previously published methods. Stacks of 2D planar images were generated by imaging sequentially across the wall thickness. To avoid tissue damage while obtaining a large range of stretch, loading was stopped at the stretch where collagen fibers were visibly straightened (heretofore termed recruited). This was defined as the maximum stretch. Fiber tortuosity was measured by tracing collagen fibers across the 2D slices (Filament function in Imaris, Bitplane, Switzerland). Fiber arc length (s) and cord length (L) were determined for each fiber tracing and used to calculate the tortuosity. The tortuosity of an undulated or wavy fiber is, therefore, greater than one and approaches one as the fiber becomes fully straightened.
Bi-axial Stretch Combined with Multi-Photon (MPM) Imaging: Planar biaxial mechanical testing coupled with multiphoton microscopy was performed on bladder wall specimens to assess bladder mechanical function while simultaneously observing changes in the collagen microstructure. Briefly, the unloaded intact bladder diameter (do) and meridional length (hv) were measured and used to calculate the unloaded bladder volume (V0) from the ellipsoid volume, V0=πd0^2h0/6. The intact bladders were then cut open longitudinally and trimmed into 6±1 mm×6±1 mm square specimens for mechanical testing with sides aligned in the situ longitudinal and circumferential directions. […] Fiber tortuosity was measured by tracing collagen fibers across the 2D slices (Filament function in Imaris, Bitplane, Switzerland). Fiber arc length (s) and cord length (L) were determined for each fiber tracing and used to calculate the tortuosity. […]

parkin = experiment: Western immunoblotting, parkin; settings: aged rats; oral 8-AG 5 mg/kg/day, 6 weeks
Procedure: as §1, with “After denaturation (100° C. for 5 min) in the presence of Laemmli sample buffer, lysate from each sample was separated on a 4-15% TGX Stain-Free SDS-PAGE gel (BIO-RAD® Laboratories, Hercules, Calif.).” left out

Nc1nc2[nH]c(N)nc2c(=O)[nH]1 [8-AG, 8-Aminoguanine]
EUS cleaved caspase 3 (cleaved caspase 3): restored to a younger state | cleaved caspase 3 in bladder mucosa (cleaved caspase 3): reversed or restored to levels similar to the younger state; also recorded: restored changes similar to a younger state | cleaved caspase 3 in detrusor smooth muscle (cleaved caspase 3): levels similar to the younger state; also recorded: restored these biomarkers to that of a younger state | bladder compliance (stress-stretch curve) ([1]; oral 8-AG 5 mg/kg/day, 6 weeks): more extensible (or compliant) bladder; also recorded: more extensible, compliant bladder | collagen fiber tortuosity in the detrusor layer ([1]; oral 8-AG 5 mg/kg/day, 6 weeks): increased; also recorded: restored fiber tortuosity to that of younger rats | collagen fiber tortuosity in the lamina propria ([1]; oral 8-AG 5 mg/kg/day, 6 weeks): increased; also recorded: Normalizing; also recorded: restored fiber tortuosity to that of younger rats | critical stretch at which the steep increase in bladder stiffness occurs ([1]; oral 8-AG for 1 week and 4 weeks): recovered to levels found in young rats | parkin in bladder mucosa (parkin): reversed or restored to levels similar to the younger state; also recorded: restored changes similar to a younger state
